These are literature values, as cited in patent US20200129491A1, “METHODS OF TREATING BRAIN TUMORS USING COMBINATION THERAPY” (AGIOS PHARMACEUTICALS, INC., priority 2017, published 2020).

For data set [1], the system named is mIDH1-driven gliomas. The following applies: some model systems; D. Rohle et al. Science 340:626-630 (2013).
In data set [2] the test system is mutant IDH1 (mIDH1).
The test system of data set [3] is mIDH1 cells. The following applies: in vitro, mIDH1 glioma models; R. J. Molenaar et al., Cancer Research 75:4790-4802 (2015).
In data set [4] the test system is mutant IDH1 proteins. The note with it: biochemical assays.
Data set [5] deals with mutant IDH1 proteins. The following applies: cellular assays.

Structures are written as SMILES. Like-named read-outs stand apart in the source and are kept apart here.

Turning to `Cc1ccccc1C(C(=O)NC1CCCCC1)N(C(=O)Cn1ccnc1C)c1cccc(F)c1` (centres unmarked) [AGI-5198], the “Growth of mIDH1-driven gliomas” value in data set [1] is recorded as “repress growth”. Further, the “Inhibition of mutant IDH1 (mIDH1)” value in data set [2] is “inhibit”. In data set [3], the “Sensitivity of mIDH1 cells to radiation therapy” value was “desensitized to radiation therapy”.
Take `N#Cc1ccnc(N2C(=O)CC[C@H]2C(=O)N(c2cncc(F)c2)[C@H](C(=O)NC2CC(F)(F)C2)c2ccccc2Cl)c1` [Ivosidenib, (S)—N—((S)-1-(2-Chlorophenyl)-2-(3,3-difluorocyclobutylamino)-2-oxoethyl)-1-(4-cyanopyridin-2-yl)-N-(5-fluoropyridin-3-yl)-5-oxopyrrolidine-2-carboxamide]: the “Inhibition of mutant IDH1 proteins” value in data set [4] and in data set [5] was “inhibitor of mutant IDH1 proteins” in each case.
